Measurements: patent US11440923B2, “Substituted macrocyclic indole derivatives” (Bayer Aktiengesellschaft, priority 2017, dated 2022)
Where a name gives a salt, the structure may show the parent alone.

Target: MCL-1 (Homo sapiens (Human), UniProt Q07820, K194A/K197A/R201A)
Assay: Protein-protein interaction assay MCL-1/Noxa BH3 peptide (MCL-1 assay, TR-FRET)
Type: binding
Details: MCL-1 Assay IC50 (median)
How it was run: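 IC50 came from a 4-parameter regression of the 665/620 nm emission ratio, normalized to DMSO controls. The mix held 1 nM MBP-fused MCL-1 (residues 173-321), a biotin-Noxa BH3 tracer and compound in Tris buffer pH 7, incubated 10 min plus 1 h at 22° C., then overnight at 4° C.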

Sequence of MCL-1 (Q07820 whole entry, looked up, stated change not applied): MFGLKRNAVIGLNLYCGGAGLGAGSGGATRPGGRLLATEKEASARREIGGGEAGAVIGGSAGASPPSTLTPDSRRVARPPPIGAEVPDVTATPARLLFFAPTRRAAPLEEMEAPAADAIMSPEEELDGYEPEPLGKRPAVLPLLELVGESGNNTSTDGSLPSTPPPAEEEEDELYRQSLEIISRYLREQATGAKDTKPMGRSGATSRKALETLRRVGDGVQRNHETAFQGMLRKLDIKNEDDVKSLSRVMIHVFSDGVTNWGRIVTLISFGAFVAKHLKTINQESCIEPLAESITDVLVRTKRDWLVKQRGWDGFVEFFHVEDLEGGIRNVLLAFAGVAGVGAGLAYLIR

| IC50 [nM] | SMILES |
| --- | --- |
| 0.39 | CCc1c2c(nn1C)C(CCO)OCCCCn1c(C(=O)O)c(CCCOc3cccc4cc(F)ccc34)c3ccc(Cl)c-2c31 (racemic) [Example 44, (rac)-4-chloro-3-ethyl-7-{3-[(6-fluoronaphthalen-1-yl)oxy]propyl}-(15-rac)-(2-hydroxyethyl)-2-methyl-2,10,11,12,13,15-hexahydropyrazolo[4′,3′:9,10][1,6]oxazacycloundecino[8,7,6-hi]indole-8-carboxylic Acid] |
| 0.88 | CCc1c2c(nn1C)C(CC(C)(C)O)OCCCCn1c(C(=O)O)c(CCCOc3cccc4cc(F)ccc34)c3ccc(Cl)c-2c31 (racemic) [Example 52, (rac)-4-chloro-3-ethyl-7-{3-[(6-fluoronaphthalen-1-yl)oxy]propyl}-(15-rac)-(2-hydroxy-2-methylpropyl)-2-methyl-2,10,11,12,13,15-hexahydropyrazolo[4′,3′:9,10][1,6]oxazacycloundecino[8,7,6-hi]indole-8-carboxylic Acid] |
| 0.85 | CCc1c2c(nn1C)C(CCN1CCOCC1)OCCCCn1c(C(=O)O)c(CCCOc3cccc4cc(F)ccc34)c3ccc(F)c-2c31 (racemic) [Example 49, (rac)-3-Ethyl-4-fluoro-7-{3-[(6-fluoronaphthalen-1-yl)oxy]propyl}-2-methyl-(15-rac)-[2-(morpholin-4-yl)ethyl]-2,10,11,12,13,15-hexahydropyrazolo[4′,3′:9,10][1,6]oxazacycloundecino[8,7,6-hi]indole-8-carboxylic Acid] |
| 36 | CCc1c2c(nn1C)C(CCO)OCCCCn1c(C(=O)O)c(CCCOc3cccc4cc(F)ccc34)c3ccc(Cl)c-2c31 (single isomer, unassigned; enantiomer 2) [Example 46, (−)-4-chloro-3-ethyl-7-{3-[(6-fluoronaphthalen-1-yl)oxy]propyl}-15-(2-hydroxyethyl)-2-methyl-2,10,11,12,13,15-hexahydropyrazolo[4′,3′:9,10][1,6]oxazacycloundecino[8,7,6-hi]indole-8-carboxylic Acid (Enantiomer 2)] |
| 1.3 | CCc1c2c(nn1C)C(CCCN1CCOCC1)OCCCCn1c(C(=O)O)c(CCCOc3cccc4cc(F)ccc34)c3ccc(Cl)c-2c31 (racemic) [Example 65, (rac)-4-chloro-3-ethyl-7-{3-[(6-fluoronaphthalen-1-yl)oxy]propyl}-2-methyl-(15-rac)-[3-(morpholin-4-yl)propyl]-2,10,11,12,13,15-hexahydropyrazolo[4′,3′:9,10][1,6]oxazacycloundecino[8,7,6-hi]indole-8-carboxylic Acid] |
| 1 | CCc1c2c(nn1C)C(CCC(C)(C)O)OCCCCn1c(C(=O)O)c(CCCOc3cccc4cc(F)ccc34)c3ccc(Cl)c-2c31 (racemic) [Example 74, (rac)-4-chloro-3-ethyl-7-{3-[(6-fluoronaphthalen-1-yl)oxy]propyl}-(15-rac)-(3-hydroxy-3-methylbutyl)-2-methyl-2,10,11,12,13,15-hexahydropyrazolo[4′,3′:9,10][1,6]oxazacycloundecino[8,7,6-hi]indole-8-carboxylic Acid] |

Continued, molecule first:

| SMILES | IC50 [nM] |
| --- | --- |
| Cc1c2c(nn1C)C(C)OCCCCn1c(C(=O)O)c(CCCOc3cccc4ccccc34)c3cccc-2c31 (racemic) [Example 1, (rac)-2,3,15-trimethyl-7-[3-(naphthalen-1-yloxy)propyl]-2,10,11,12,13,15-hexahydropyrazolo[4′,3′:9,10][1,6]oxazacycloundecino[8,7,6-hi]indole-8-carboxylic Acid (Mixture of Stereoisomers)] | 2.2 |
| Cc1c2c(nn1C)C(CCN1CCOCC1)OCCCCn1c(C(=O)O)c(CCCOc3cccc4ccccc34)c3cccc-2c31 (single isomer, unassigned; stereoisomer 2) [Example 6, 2,3-dimethyl-15-[2-(morpholin-4-yl)ethyl]-7-[3-(naphthalen-1-yloxy)propyl]-2,10,11,12,13,15-hexahydropyrazolo[4′,3′:9,10][1,6]oxazacycloundecino[8,7,6-hi]indole-8-carboxylic Acid (Stereoisomer 2)] | 51 |
| CCc1c2c(nn1C)C(CCN1CCOCC1)OCCCCn1c(C(=O)O)c(CCCOc3cccc4cc(F)ccc34)c3ccc(Cl)c-2c31 (racemic) [Example 22, (rac)-4-chloro-3-ethyl-7-{3-[(6-fluoronaphthalen-1-yl)oxy]propyl}-2-methyl-15-[2-(morpholin-4-yl)ethyl]-2,10,11,12,13,15-hexahydropyrazolo[4′,3′:9,10][1,6]oxazacycloundecino[8,7,6-hi]indole-8-carboxylic Acid] | 1.5 |
| CCc1c2c(nn1C)C(CCC1CCOCC1)OCCCCn1c(C(=O)O)c(CCCOc3cccc4cc(F)ccc34)c3ccc(Cl)c-2c31 (single isomer, unassigned; enantiomer 2) [Example 62, (−)-4-chloro-3-ethyl-7-{3-[(6-fluoronaphthalen-1-yl)oxy]propyl}-2-methyl-15-[2-(oxan-4-yl)ethyl]-2,10,11,12,13,15-hexahydropyrazolo[4′,3′:9,10][1,6]oxazacycloundecino[8,7,6-hi]indole-8-carboxylic Acid (Enantiomer 2)] | 120 |
| CCc1c2c(nn1C)C(CCOC)OCCCCn1c(C(=O)O)c(CCCOc3cccc4cc(F)ccc34)c3ccc(Cl)c-2c31 (racemic) [Example 41, (rac)-4-chloro-3-ethyl-7-{3-[(6-fluoronaphthalen-1-yl)oxy]propyl}-(15-rac)-(2-methoxyethyl)-2-methyl-2,10,11,12,13,15-hexahydropyrazolo[4′,3′:9,10][1,6]oxazacycloundecino[8,7,6-hi]indole-8-carboxylic Acid] | 0.52 |
| Cc1c2c(nn1C)C(C)OCCCCn1c(C(=O)O)c(CCCOc3cccc4ccccc34)c3cccc-2c31 (single isomer, unassigned; stereoisomer 1) [Example 2, 2,3,15-trimethyl-7-[3-(naphthalen-1-yloxy)propyl]-2,10,11,12,13,15-hexahydropyrazolo[4′,3′:9,10][1,6]oxazacycloundecino[8,7,6-hi]indole-8-carboxylic Acid Trifluoroacetic Acid Salt (Stereoisomer 1)] | 1.2 |
| Cc1c2c(nn1C)C(CCO)OCCCCn1c(C(=O)O)c(CCCOc3cccc4ccccc34)c3ccc(Cl)c-2c31 (single isomer, unassigned; enantiomer 2) [Example 32, (−)-4-chloro-15-(2-hydroxyethyl)-2,3-dimethyl-7-{3-[(naphthalen-1-yl)oxy]propyl}-2,10,11,12,13,15-hexahydropyrazolo[4′,3′:9,10][1,6]oxazacycloundecino[8,7,6-hi]indole-8-carboxylic Acid (Enantiomer 2)] | 75 |
| Cc1c2c(nn1C)C(CCN1CCOCC1)OCCCCn1c(C(=O)O)c(CCCOc3cccc4ccccc34)c3ccc(F)c-2c31 (racemic) [Example 7, (rac)-4-fluoro-2,3-dimethyl-15-[2-(morpholin-4-yl)ethyl]-7-[3-(naphthalen-1-yloxy)propyl]-2,10,11,12,13,15-hexahydropyrazolo[4′,3′:9,10][1,6]oxazacycloundecino[8,7,6-hi]indole-8-carboxylic Acid] | 0.66 |
| Cc1c2c(nn1C)C(CCN1CCOCC1)OCCCCn1c(C(=O)O)c(CCCOc3cccc4cc(F)ccc34)c3ccc(F)c-2c31 (single isomer, unassigned; enantiomer 2) [Example 21, 4-fluoro-7-{3-[(6-fluoronaphthalen-1-yl)oxy]propyl}-2,3-dimethyl-15-[2-(morpholin-4-yl)ethyl]-2,10,11,12,13,15-hexahydropyrazolo[4′,3′:9,10][1,6]oxazacycloundecino[8,7,6-hi]indole-8-carboxylic Acid (Enantiomer 2)] | 160 |
| COCCC1OCCCCn2c(C(=O)O)c(CCCOc3cccc4ccccc34)c3ccc(Cl)c(c32)-c2c1nn(C)c2C (racemic) [Example 37, (rac)-4-chloro-(15-rac)-(2-methoxyethyl)-2,3-dimethyl-7-{3-[(naphthalen-1-yl)oxy]propyl}-2,10,11,12,13,15-hexahydropyrazolo[4′,3′:9,10][1,6]oxazacycloundecino[8,7,6-hi]indole-8-carboxylic Acid] | 0.48 |
| Cc1c2c(nn1C)C(CCN1CCOCC1)OCCCCn1c(C(=O)O)c(CCCOc3cccc4ccccc34)c3ccc(Cl)c-2c31 (racemic) [Example 13, (rac)-4-chloro-2,3-dimethyl-15-[2-(morpholin-4-yl)ethyl]-7-{3-[(naphthalen-1-yl)oxy]propyl}-2,10,11,12,13,15-hexahydropyrazolo[4′,3′:9,10][1,6]oxazacycloundecino[8,7,6-hi]indole-8-carboxylic Acid] | 1.6 |
| Cc1c2c(nn1C)C(CCN1CCOCC1)OCCCCn1c(C(=O)O)c(CCCOc3cccc4cc(F)ccc34)c3ccc(Cl)c-2c31 (racemic) [Example 16, (rac)-4-chloro-7-{3-[(6-fluoronaphthalen-1-yl)oxy]propyl}-2,3-dimethyl-15-[2-(morpholin-4-yl)ethyl]-2,10,11,12,13,15-hexahydropyrazolo[4′,3′:9,10][1,6]oxazacycloundecino[8,7,6-hi]indole-8-carboxylic Acid] | 2 |
| CCC1OCCCCn2c(C(=O)O)c(CCCOc3cccc4ccccc34)c3ccc(Cl)c(c32)-c2c1nn(C)c2C (racemic) [Example 25, (rac)-4-chloro-15-ethyl-2,3-dimethyl-7-{3-[(naphthalen-1-yl)oxy]propyl}-2,10,11,12,13,15-hexahydropyrazolo[4′,3′:9,10][1,6]oxazacycloundecino[8,7,6-hi]indole-8-carboxylic Acid] | 1.9 |
| CCc1c2c(nn1C)C(CCC1CCOCC1)OCCCCn1c(C(=O)O)c(CCCOc3cccc4cc(F)ccc34)c3ccc(Cl)c-2c31 (single isomer, unassigned; enantiomer 1) [Example 61, 4-chloro-3-ethyl-7-{3-[(6-fluoronaphthalen-1-yl)oxy]propyl}-2-methyl-15-[2-(oxan-4-yl)ethyl]-2,10,11,12,13,15-hexahydropyrazolo[4′,3′:9,10][1,6]oxazacycloundecino[8,7,6-hi]indole-8-carboxylic Acid (Enantiomer 1)] | 0.46 |
